Laboratory results as given in PubChem BioAssay AID256 (DTP/NCI, 2004).
Where “and” joins values, the source holds several entries; their conditions need not be identical. Equal entries are not always repeated. Inconclusive results and toxic doses are left out.

Tested on: CD2F1 mice, L1210 leukemia ip, survival T/C
Test: NCI In Vivo Anticancer Drug Screen. Data for tumor model L1210 Leukemia (intraperitoneal) in CD2F1 (CDF1) mice
Conditions: higher = longer survival
Procedure, shortened: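 Mice carrying a transplanted tumor received test compound or vehicle alone. The value is the measurement in the treated group divided by that in the vehicle-treated control group.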

O=C(O)c1ccc(C(=O)O)c(C(=O)O)c1.[NH-]C1CCCCC1[NH-].[Pt+2]
T/C (endpoint: mean survival time, dose: 0.39 mg/kg/injection, schedule: Q01DX009 (ip), vehicle: sodium bicarbonate): 123 % of control | T/C (endpoint: mean survival time, dose: 0.39 mg/kg/injection, schedule: Q04DX003 (ip), vehicle: other): 115 % of control | T/C (endpoint: mean survival time, dose: 0.78 mg/kg/injection, schedule: Q01DX009 (ip), vehicle: sodium bicarbonate): 174 % of control and 200 % of control | T/C (endpoint: mean survival time, dose: 0.78 mg/kg/injection, schedule: Q04DX003 (ip), vehicle: other): 120 % of control | T/C (endpoint: mean survival time, dose: 0.78 mg/kg/injection, schedule: Q04DX003 (ip), vehicle: sodium bicarbonate): 119 % of control | T/C (endpoint: mean survival time, dose: 1.56 mg/kg/injection, schedule: Q01DX009 (ip), vehicle: sodium bicarbonate): 172 % of control and 325 % of control | T/C (endpoint: mean survival time, dose: 1.56 mg/kg/injection, schedule: Q04DX003 (ip), vehicle: sodium bicarbonate): 119 % of control | T/C (endpoint: mean survival time, dose: 3.12 mg/kg/injection, schedule: Q01DX009 (ip), vehicle: sodium bicarbonate): 155 % of control and 196 % of control and 251 % of control | T/C (endpoint: mean survival time, dose: 3.13 mg/kg/injection, schedule: Q04DX003 (ip), vehicle: other): 183 % of control | T/C (endpoint: mean survival time, dose: 6.25 mg/kg/injection, schedule: Q01DX009 (ip), vehicle: sodium bicarbonate): 190 % of control | T/C (endpoint: mean survival time, dose: 6.25 mg/kg/injection, schedule: Q04DX003 (ip), vehicle: other): 240 % of control and 263 % of control | T/C (endpoint: mean survival time, dose: 6.25 mg/kg/injection, schedule: Q04DX003 (ip), vehicle: sodium bicarbonate): 158 % of control | T/C (endpoint: mean survival time, dose: 8.0 mg/kg/injection, schedule: Q01DX005 (oral), vehicle: sodium bicarbonate): 113 % of control and 120 % of control and 101 % of control | T/C (endpoint: mean survival time, dose: 12.5 mg/kg/injection, schedule: Q01DX009 (ip), vehicle: sodium bicarbonate): 227 % of control and 97 % of control | T/C (endpoint: mean survival time, dose: 12.5 mg/kg/injection, schedule: Q04DX003 (ip), vehicle: other): 273 % of control and 291 % of control | T/C (endpoint: mean survival time, dose: 12.5 mg/kg/injection, schedule: Q04DX003 (ip), vehicle: sodium bicarbonate): 247 % of control | T/C (endpoint: mean survival time, dose: 16.0 mg/kg/injection, schedule: Q01DX005 (oral), vehicle: sodium bicarbonate): 100 % of control and 105 % of control | T/C (endpoint: mean survival time, dose: 25.0 mg/kg/injection, schedule: Q04DX003 (ip), vehicle: other): 328 % of control and 444 % of control | T/C (endpoint: mean survival time, dose: 25.0 mg/kg/injection, schedule: Q04DX003 (ip), vehicle: sodium bicarbonate): 186 % of control | T/C (endpoint: mean survival time, dose: 32.0 mg/kg/injection, schedule: Q01DX005 (oral), vehicle: sodium bicarbonate): 108 % of control | T/C (endpoint: mean survival time, dose: 64.0 mg/kg/injection, schedule: Q01DX005 (oral), vehicle: sodium bicarbonate): 108 % of control | T/C (endpoint: mean survival time, dose: 128.0 mg/kg/injection, schedule: Q01DX005 (oral), vehicle: sodium bicarbonate): 113 % of control and 103 % of control | T/C (endpoint: mean survival time, dose: 256.0 mg/kg/injection, schedule: Q01DX005 (oral), vehicle: sodium bicarbonate): 116 % of control and 121 % of control and 111 % of control | T/C (endpoint: median survival time, dose: 0.58 mg/kg/injection, schedule: Q01DX009 (ip), vehicle: sodium bicarbonate): 156 % of control | T/C (endpoint: median survival time, dose: 0.87 mg/kg/injection, schedule: Q01DX009 (ip), vehicle: water): 101 % of control and 112 % of control | T/C (endpoint: median survival time, dose: 1.2 mg/kg/injection, schedule: Q01DX009 (ip), vehicle: sodium bicarbonate): 361 % of control | T/C (endpoint: median survival time, dose: 1.3 mg/kg/injection, schedule: Q01DX009 (ip), vehicle: water): 115 % of control and 107 % of control | T/C (endpoint: median survival time, dose: 1.8 mg/kg/injection, schedule: Q01DX009 (ip), vehicle: sodium bicarbonate): 313 % of control | T/C (endpoint: median survival time, dose: 2.0 mg/kg/injection, schedule: Q01DX009 (ip), vehicle: water): 122 % of control and 101 % of control | T/C (endpoint: median survival time, dose: 2.7 mg/kg/injection, schedule: Q01DX009 (ip), vehicle: sodium bicarbonate): 240 % of control | T/C (endpoint: median survival time, dose: 3.0 mg/kg/injection, schedule: Q01DX009 (ip), vehicle: sodium bicarbonate): 357 % of control | T/C (endpoint: median survival time, dose: 3.13 mg/kg/injection, schedule: Q04DX003 (ip), vehicle: other): 154 % of control and 280 % of control | T/C (endpoint: median survival time, dose: 3.13 mg/kg/injection, schedule: Q04DX003 (ip), vehicle: sodium bicarbonate): 174 % of control | T/C (endpoint: median survival time, dose: 3.5 mg/kg/injection, schedule: Q01DX009 (ip), vehicle: water): 107 % of control | T/C (endpoint: median survival time, dose: 4.0 mg/kg/injection, schedule: Q01DX009 (ip), vehicle: sodium bicarbonate): 166 % of control | T/C (endpoint: median survival time, dose: 4.5 mg/kg/injection, schedule: Q01DX009 (ip), vehicle: sodium bicarbonate): 237 % of control | T/C (endpoint: median survival time, dose: 5.0 mg/kg/injection, schedule: Q04DX003 (ip), vehicle: sodium bicarbonate): 176 % of control and 186 % of control and 195 % of control | T/C (endpoint: median survival time, dose: 5.24 mg/kg/injection, schedule: Q04DX003 (ip), vehicle: sodium bicarbonate): 158 % of control | T/C (endpoint: median survival time, dose: 5.3 mg/kg/injection, schedule: Q01DX009 (ip), vehicle: sodium bicarbonate): 182 % of control | T/C (endpoint: median survival time, dose: 6.25 mg/kg/injection, schedule: Q04DX003 (ip), vehicle: other): 202 % of control and 313 % of control | T/C (endpoint: median survival time, dose: 6.25 mg/kg/injection, schedule: Q04DX003 (ip), vehicle: saline): 265 % of control | T/C (endpoint: median survival time, dose: 6.25 mg/kg/injection, schedule: Q04DX003 (ip), vehicle: sodium bicarbonate): 154 % of control and 348 % of control | T/C (endpoint: median survival time, dose: 7.78 mg/kg/injection, schedule: Q04DX003 (ip), vehicle: sodium bicarbonate): 198 % of control | T/C (endpoint: median survival time, dose: 8.0 mg/kg/injection, schedule: Q01DX009 (ip), vehicle: water): 180 % of control | T/C (endpoint: median survival time, dose: 8.3 mg/kg/injection, schedule: Q01DX009 (ip), vehicle: water): 277 % of control and 108 % of control | T/C (endpoint: median survival time, dose: 10.0 mg/kg/injection, schedule: Q04DX003 (ip), vehicle: sodium bicarbonate): 231 % of control and 247 % of control and 430 % of control | T/C (endpoint: median survival time, dose: 11.81 mg/kg/injection, schedule: Q04DX003 (ip), vehicle: sodium bicarbonate): 295 % of control | T/C (endpoint: median survival time, dose: 12.0 mg/kg/injection, schedule: Q01DX009 (ip), vehicle: water): 298 % of control | T/C (endpoint: median survival time, dose: 12.5 mg/kg/injection, schedule: Q04DX003 (ip), vehicle: other): 202 % of control | T/C (endpoint: median survival time, dose: 12.5 mg/kg/injection, schedule: Q04DX003 (ip), vehicle: saline): 361 % of control | T/C (endpoint: median survival time, dose: 12.5 mg/kg/injection, schedule: Q04DX003 (ip), vehicle: sodium bicarbonate): 309 % of control and 348 % of control | T/C (endpoint: median survival time, dose: 13.0 mg/kg/injection, schedule: Q04DX003 (ip), vehicle: sodium bicarbonate): 231 % of control | T/C (endpoint: median survival time, dose: 16.0 mg/kg/injection, schedule: Q01DX009 (ip), vehicle: water): 240 % of control | T/C (endpoint: median survival time, dose: 17.74 mg/kg/injection, schedule: Q04DX003 (ip), vehicle: sodium bicarbonate): 214 % of control | T/C (endpoint: median survival time, dose: 20.0 mg/kg/injection, schedule: Q01DX001 (ip), vehicle: sodium bicarbonate): 174 % of control | T/C (endpoint: median survival time, dose: 25.0 mg/kg/injection, schedule: Q04DX003 (ip), vehicle: saline): 361 % of control | T/C (endpoint: median survival time, dose: 25.0 mg/kg/injection, schedule: Q04DX003 (ip), vehicle: sodium bicarbonate): 357 % of control | T/C (endpoint: median survival time, dose: 26.64 mg/kg/injection, schedule: Q04DX003 (ip), vehicle: sodium bicarbonate): 345 % of control | T/C (endpoint: median survival time, dose: 30.0 mg/kg/injection, schedule: Q01DX001 (ip), vehicle: sodium bicarbonate): 170 % of control and 175 % of control and 333 % of control | T/C (endpoint: median survival time, dose: 30.0 mg/kg/injection, schedule: Q04DX003 (ip), vehicle: sodium bicarbonate): 323 % of control | T/C (endpoint: median survival time, dose: 40.0 mg/kg/injection, schedule: Q01DX001 (ip), vehicle: sodium bicarbonate): 198 % of control and 714 % of control | T/C (endpoint: median survival time, dose: 50.0 mg/kg/injection, schedule: Q01DX001 (ip), vehicle: sodium bicarbonate): 210 % of control | T/C (endpoint: median survival time, dose: 50.0 mg/kg/injection, schedule: Q04DX003 (ip), vehicle: sodium bicarbonate): 345 % of control | T/C (endpoint: median survival time, dose: 64.0 mg/kg/injection, schedule: Q01DX009 (ip), vehicle: water): 89 % of control

C=CCNC(=S)NCC
T/C (endpoint: mean survival time, dose: 100.0 mg/kg/injection, schedule: Q01DX009 (ip), vehicle: saline with Tween-80): 98 % of control | T/C (endpoint: mean survival time, dose: 100.0 mg/kg/injection, schedule: Q04DX003 (ip), vehicle: saline sonified): 101 % of control | T/C (endpoint: mean survival time, dose: 200.0 mg/kg/injection, schedule: Q01DX009 (ip), vehicle: saline with Tween-80): 101 % of control | T/C (endpoint: mean survival time, dose: 200.0 mg/kg/injection, schedule: Q04DX003 (ip), vehicle: saline sonified): 97 % of control | T/C (endpoint: mean survival time, dose: 400.0 mg/kg/injection, schedule: Q01DX009 (ip), vehicle: saline with Tween-80): 102 % of control | T/C (endpoint: mean survival time, dose: 400.0 mg/kg/injection, schedule: Q04DX003 (ip), vehicle: saline sonified): 101 % of control

CCOC(=O)C(C(=O)OCC)C(C[N+](=O)[O-])c1ccccc1 (stereo unspecified)
T/C (endpoint: mean survival time, dose: 50.0 mg/kg/injection, schedule: Q01DX009 (ip), vehicle: saline): 92 % of control | T/C (endpoint: mean survival time, dose: 100.0 mg/kg/injection, schedule: Q01DX009 (ip), vehicle: saline): 116 % of control | T/C (endpoint: mean survival time, dose: 200.0 mg/kg/injection, schedule: Q01DX009 (ip), vehicle: saline): 96 % of control

ClCCCN1CCCCC1CCl (stereo unspecified)
T/C (endpoint: mean survival time, dose: 3.12 mg/kg/injection, schedule: Q04DX003 (ip), vehicle: saline): 104 % of control | T/C (endpoint: mean survival time, dose: 6.25 mg/kg/injection, schedule: Q04DX003 (ip), vehicle: saline): 113 % of control | T/C (endpoint: mean survival time, dose: 25.0 mg/kg/injection, schedule: Q04DX003 (ip), vehicle: saline): 173 % of control

c1ccc(-c2cc3cc4ccccc4cn3c2)cc1
T/C (endpoint: median survival time, dose: 50.0 mg/kg/injection, schedule: Q01DX009 (ip), vehicle: saline with Tween-80): 104 % of control | T/C (endpoint: median survival time, dose: 100.0 mg/kg/injection, schedule: Q01DX009 (ip), vehicle: saline with Tween-80): 100 % of control | T/C (endpoint: median survival time, dose: 200.0 mg/kg/injection, schedule: Q01DX009 (ip), vehicle: saline with Tween-80): 108 % of control | T/C (endpoint: median survival time, dose: 400.0 mg/kg/injection, schedule: Q01DX009 (ip), vehicle: saline with Tween-80): 113 % of control | T/C (endpoint: median survival time, dose: 800.0 mg/kg/injection, schedule: Q01DX009 (ip), vehicle: saline with Tween-80): 110 % of control
